Assay results as given in US9352013B2, “Uses of bremelanotide in therapy for female sexual dysfunction” (Palatin Technologies, Inc., priority 2012, dated 2016).
Where two headings read alike, the source gives them in different places.

Experiments:
[1] = Phase 2 intranasal trials: plasma concentration after 10 mg intranasal dose; format: in vivo; settings: female, human, inhaled or intranasal, premenopausal, 30 minutes post dosing
Experimental: (§1) In the bremelanotide premenopausal arm, 42.5% of the subjects were discontinued due to hypertension, nausea, vomiting or myalgia. Subjects received a 10 mg intranasal dose of bremelanotide, with premenopausal subjects determined to have a mean plasma concentration of 88.5±51.9 ng/mL and a % CV of 58.6, and postmenopausal subjects determined to have a mean plasma concentration of 93.2±68.5 ng/mL and a % CV of 73.5. The minimum and maximum plasma concentration levels for all women at thirty minutes post dose range from 0.0 ng/mL to 207.0 ng/mL.
In the intranasal study, premenopausal women self-administered a 10 mg intranasal dose.

[2] = Example 1: pharmacokinetics after in-clinic subcutaneous dose; format: in vivo, human; settings: for AUC(0-t) / Cmax: human, sc
Experimental: Ambulatory blood pressure monitoring was conducted following both placebo and randomized treatment group in-clinic administrations. Three periods of ambulatory blood pressure monitoring were included, the first period was from before to 24 hours after a single, in-clinic dose of placebo (to establish a baseline); the second and third periods occurred from before to 24 hours after each of 2 single, in-clinic doses of double-blind treatment, administered within 14 days of each other. Blood samples for pharmacokinetic analysis were collected before and at 0.5, 1.0, and 2.0 hours after each in-clinic bremelanotide single-dose treatment (double-blind only), to permit analysis of concentration-response relationships.
Mean pharmacokinetic parameters were determined by bremelanotide dose and visit, including Cmax determinations (the highest ng/mL concentration at either 0.5 or 1 hour post administration) and AUC determinations at two hours and, for a subset of subjects in each group, at four hours.
The Cmax for the mean curve was calculated by averaging the concentrations at each time point (0.5, 1, 2 and 4 hours), and this is shown in FIG. 3.

[3] = system: premenopausal and postmenopausal women with FSAD; test: Phase 2 intranasal trials in women with FSAD: efficacy and adverse events; format: in vivo, human
Experimental: as §1
Results with premenopausal women in a placebo-controlled, randomized, double-blind, parallel group, at-home exploratory study to evaluate the efficacy and safety of intranasally administered bremelanotide in subjects with female sexual arousal disorder (FSAD) were compared against results in the study of Example 1. In the intranasal study, a total of 76 premenopausal subjects were randomized, with 40 subjects to receive bremelanotide and 36 to receive placebo. Twenty-two subjects treated with bremelanotide and 29 treated with placebo completed the study, with 16 subjects who received bremelanotide (40%) discontinuing from the study due to an adverse event. This compares to the study of Example 1, in which as shown by Table 6 only 8% of subjects on the 1.75 mg subcutaneous dose discontinuing due to an adverse event.

[4] = system: men diagnosed with erectile dysfunction; settings: subcutaneous injection of either a 4 or 6 mg dose; cited from earlier work
[5] = Single SC doses in male subjects with ED and preexisting hypertension: tolerability; format: in vivo, human; settings: single subcutaneous doses of 4 and 6 mg
[6] = Pharmacokinetics of subcutaneous administration in healthy adult males; format: in vivo; settings: male, human, plasma, sc, read-out: Median Tmax
Description: Results of Tmax values were compared between subcutaneous administration (SC) and intranasal (IN) administration of various doses of bremelanotide, as shown in FIG. 1.

[7] = Subcutaneous trial in males: vomiting; format: in vivo, human; settings: males
Experimental: In a trial in males, 1 of 6 subjects at the 5-mg dose level, 1 of 6 subjects at the 7.5 mg dose level, and 3 of 6 subjects at the 10-mg dose level experienced vomiting that was mild or moderate in intensity and delayed 6 to 15 hours.

## CCCC[C@H](NC(C)=O)C(=O)N[C@H]1CC(=O)NCCCC[C@@H](C(=O)O)NC(=O)[C@H](Cc2c[nH]c3ccccc23)NC(=O)[C@H](CCCNC(=N)N)NC(=O)[C@@H](Cc2ccccc2)NC(=O)[C@H](Cc2c[nH]cn2)NC1=O [bremelanotide, Ac-Nle-cyclo(-Asp-His-D-Phe-Arg-Trp-Lys)-OH]
[1]; read-out: Cmax / plasma concentration, mean
  Cmax at 30 min: 88.5 ± 51.9 ng/mL
[1]; read-out: Cmax, maximum
  Cmax at 30 min: 207 ng/mL
[1]; read-out: Cmax, median
  Cmax at 30 min: 81.1 ng/mL
[2]; 1.75 mg SC, Visit 5
  Cmax, Max: 115 ng/mL
  Cmax, Min: 15 ng/mL
[2]; blood, 0.75 mg, 0.75 mg SC, Visit 5, read-out: AUC(0-2h), Median
  AUC(0-t): 52 ng·h/mL
[2]; blood, 0.75 mg, 0.75 mg SC, Visit 5, read-out: AUC(0-4h), Median
  AUC(0-t): 80 ng·h/mL
[2]; blood, 0.75 mg, 0.75 mg SC, Visit 5, read-out: Cmax, Median
  Cmax: 36 ng/mL
[2]; blood, 0.75 mg, 0.75 mg SC, Visit 7, read-out: AUC(0-2h), Mean
  AUC(0-t): 53 ng·h/mL
[2]; blood, 0.75 mg, 0.75 mg SC, Visit 7, read-out: AUC(0-2h), Median
  AUC(0-t): 52 ng·h/mL
[2]; blood, 0.75 mg, 0.75 mg SC, Visit 7, read-out: AUC(0-4h), Mean
  AUC(0-t): 80 ng·h/mL
[2]; blood, 0.75 mg, 0.75 mg SC, Visit 7, read-out: AUC(0-4h), Median
  AUC(0-t): 79 ng·h/mL
[2]; blood, 0.75 mg, 0.75 mg SC, Visit 7, read-out: Cmax, Median
  Cmax: 37 ng/mL
[2]; blood, 1.25 mg, 1.25 mg SC, Visit 5, read-out: AUC(0-2h), Mean
  AUC(0-t): 86 ng·h/mL
[2]; blood, 1.25 mg, 1.25 mg SC, Visit 5, read-out: AUC(0-2h), Median
  AUC(0-t): 81 ng·h/mL
[2]; blood, 1.25 mg, 1.25 mg SC, Visit 5, read-out: AUC(0-4h), Mean
  AUC(0-t): 138 ng·h/mL
[2]; blood, 1.25 mg, 1.25 mg SC, Visit 5, read-out: AUC(0-4h), Median
  AUC(0-t): 136 ng·h/mL
[2]; blood, 1.25 mg, 1.25 mg SC, Visit 5, read-out: Cmax, Mean
  Cmax: 60 ng/mL
[2]; blood, 1.25 mg, 1.25 mg SC, Visit 5, read-out: Cmax, Median
  Cmax: 56 ng/mL
[2]; blood, 1.25 mg, 1.25 mg SC, Visit 7, read-out: AUC(0-2h), Mean
  AUC(0-t): 84 ng·h/mL
[2]; blood, 1.25 mg, 1.25 mg SC, Visit 7, read-out: AUC(0-2h), Median
  AUC(0-t): 84 ng·h/mL
[2]; blood, 1.25 mg, 1.25 mg SC, Visit 7, read-out: AUC(0-4h), Mean
  AUC(0-t): 142 ng·h/mL
[2]; blood, 1.25 mg, 1.25 mg SC, Visit 7, read-out: AUC(0-4h), Median
  AUC(0-t): 144 ng·h/mL
[2]; blood, 1.25 mg, 1.25 mg SC, Visit 7, read-out: Cmax, Mean
  Cmax: 60 ng/mL
[2]; blood, 1.25 mg, 1.25 mg SC, Visit 7, read-out: Cmax, Median
  Cmax: 60 ng/mL
[2]; in vivo, 0.75 mg, 0.75 mg SC, Visit 5, read-out: AUC(0-2h), Mean
  AUC(0-t): 53 ng·h/mL
[2]; in vivo, 0.75 mg, 0.75 mg SC, Visit 5, read-out: AUC(0-4h), Mean
  AUC(0-t): 84 ng·h/mL
[2]; in vivo, 0.75 mg, 0.75 mg SC, Visit 5, read-out: Cmax, Mean
  Cmax: 37 ng/mL
[2]; in vivo, 0.75 mg, 0.75 mg SC, Visit 7, read-out: Cmax, Mean
  Cmax: 38 ng/mL
[2]; in vivo, 1.75 mg, 1.75 mg SC, Visit 5, read-out: AUC(0-2h), Mean
  AUC(0-t): 112 ng·h/mL
[2]; in vivo, 1.75 mg, 1.75 mg SC, Visit 5, read-out: AUC(0-2h), Median
  AUC(0-t): 112 ng·h/mL
[2]; in vivo, 1.75 mg, 1.75 mg SC, Visit 5, read-out: AUC(0-4h), Mean
  AUC(0-t): 178 ng·h/mL
[2]; in vivo, 1.75 mg, 1.75 mg SC, Visit 5, read-out: AUC(0-4h), Median
  AUC(0-t): 179 ng·h/mL
[2]; in vivo, 1.75 mg, 1.75 mg SC, Visit 5, read-out: Cmax, Mean
  Cmax: 77 ng/mL
[2]; in vivo, 1.75 mg, 1.75 mg SC, Visit 5, read-out: Cmax, Median
  Cmax: 78 ng/mL
[2]; in vivo, 1.75 mg, 1.75 mg SC, Visit 7, read-out: AUC(0-2h), Mean
  AUC(0-t): 112 ng·h/mL
[2]; in vivo, 1.75 mg, 1.75 mg SC, Visit 7, read-out: AUC(0-2h), Median
  AUC(0-t): 111 ng·h/mL
[2]; in vivo, 1.75 mg, 1.75 mg SC, Visit 7, read-out: AUC(0-4h), Mean
  AUC(0-t): 184 ng·h/mL
[2]; in vivo, 1.75 mg, 1.75 mg SC, Visit 7, read-out: AUC(0-4h), Median
  AUC(0-t): 180 ng·h/mL
[2]; in vivo, 1.75 mg, 1.75 mg SC, Visit 7, read-out: Cmax, Mean
  Cmax: 78 ng/mL
[2]; in vivo, 1.75 mg, 1.75 mg SC, Visit 7, read-out: Cmax, Median
  Cmax: 77 ng/mL
[2]; in vivo, 1.75 mg, 1.75 mg subcutaneous dose, Example 1, read-out: Cmax, maximum
  Cmax: 115 ng/mL
[2]; in vivo, 1.75 mg, 1.75 mg subcutaneous dose, Example 1, read-out: Cmax, mean
  Cmax: 77.2 ± 19.5 ng/mL
[2]; in vivo, 1.75 mg, 1.75 mg subcutaneous dose, Example 1, read-out: Cmax, median
  Cmax: 78 ng/mL
[2]; in vivo, 1.75 mg, 1.75 mg subcutaneous dose, Example 1, read-out: Cmax, minimum
  Cmax: 15 ng/mL
[3]; 10 mg intranasal, postmenopausal, placebo 47.7%
  Subjects reporting at least one adverse event: 100%
[3]; 10 mg intranasal, premenopausal, 16 of 40 subjects
  Subjects discontinuing from the study due to an adverse event: 40%
[3]; intranasal, premenopausal and postmenopausal women with FSAD
  Sexual desire and arousal compared to placebo: increase sexual desire and arousal compared to placebo
[4]
  Erectile response compared to placebo: statistically significant erectile response
[5]
  Tolerability: improved tolerability
[6]
  Tmax: 30 to 60 min
[7]; 7.5 mg dose level
  Subjects who experienced vomiting: 1 of 6
[7]; 5-mg dose level
  Subjects who experienced vomiting: 1 of 6
[7]; 10-mg dose level
  Subjects who experienced vomiting: 3 of 6
